Laboratory results published in patent publication US9522928B2, “Mannosylated compounds useful for the prevention and the treatment of infectious diseases” (UNIVERSITE DE STRASBOURG, priority 2011, dated 2016).
Entries after “also recorded” stand apart in the source; their conditions may differ. Where two headings read alike, the source gives them in different places.

Key:
HIV-1 R5 = HIV-1 R5 trans-infection of MAGI-CCR5 cells mediated by DCs; assay type: cell-based
Procedure: ManC1, […] (comparative) and compounds of the invention (ManC24, ManC17, TriManC24, TriDiManC24, TriManinsatC24 and ManinsatC24) were serially diluted in water. Human DCs (1×10^5 in 200 μl ) were pre-treated with different concentrations of compounds, or mannan (Sigma) or culture medium alone, in RPMI 1640 medium containing 10% FBS for 45 min at 37° C., prior infection with HIV-1 (100 ng of p24Gag) for 3 h. Excess free virus and molecules were removed by three washes. DCs were then cocultured with MAGI -CCR5 cells (1×10^5) at 37° C. plated in a 48-well plate. After two days, viral infection of MAGI-CCR5 cells was quantitated following beta-galactosidase assays and enumerating blue cells by light microscopy.
The IC50 were determined by serial dilution of each compound. The trans-infection assays were repeated a minimum of three times, and the IC50 determined using KaleidaGraph.
To investigate the ability of the compounds of the invention to inhibit HIV-1 trans infection, we chose to infect human DCs in order to best mimic in vivo conditions. Human DCs were exposed to different compounds (namely, Mannan (control), ManC1 (comparative), ManC11 (comparative), ManC17, ManC24, TriManC24, TriDiManC24, ManinsatC24 and TriManinsatC24) for 45 min at 37° C., before inoculation with HIV-1 (strains R5 and X4) for 3 hours. After extensive washings to remove unbound virions and mannosides, DCs were then co-cultured with MAGI-CCR5 cells. This procedure allows precise quantification of HIV-1 replication in reporter MAGI-CCR5 cells by detection of beta-galactosidase activity. These cells express an integrated copy of the HIV long terminal repeat (LTR) fused to the beta-galactosidase reporter gene, and express the CD4 receptor and the CCR5 and CXCR4 co-receptors, required for entry of HIV-1 R5 and X4 respectively. Upon viral entry leading to viral Tat expression and activation of the LTR, these cells permit quantification of HIV trans-infection after two days.

DC-SIGN CRD = biological target: T1, DC-SIGN CRD (Homo sapiens, UniProt Q9NNX6); assay: Surface plasmon resonance (SPR) binding to immobilised DC-SIGN CRD; conditions: for Kd / KD (μM): Kd=koff/kon
T1 construct: human DC-SIGN (Lys62-Ala404, from R§D Systems); purchased R&D Systems ('R§D Systems' [sic])
T1 sequence (Q9NNX6 62-404): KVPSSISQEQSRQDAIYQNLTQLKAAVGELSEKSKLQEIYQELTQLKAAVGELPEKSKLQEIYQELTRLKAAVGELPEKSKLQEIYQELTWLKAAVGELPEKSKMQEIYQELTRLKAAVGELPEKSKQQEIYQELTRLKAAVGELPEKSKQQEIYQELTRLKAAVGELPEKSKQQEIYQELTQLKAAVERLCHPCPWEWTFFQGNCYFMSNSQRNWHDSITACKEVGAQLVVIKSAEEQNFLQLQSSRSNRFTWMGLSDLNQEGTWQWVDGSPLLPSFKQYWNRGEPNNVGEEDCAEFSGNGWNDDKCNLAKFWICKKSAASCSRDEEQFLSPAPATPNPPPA
Procedure: SPR experiments were performed using a Biacore 3000. […] Biosensor assays were performed with HEPES-buffered saline (10 mM HEPES, 150 mM sodium chloride, pH 7.4) containing 0.005% surfactant P20 and 5 mM CaCl2 as a running buffer. All binding experiments were carried out at 25° C. with a constant flow rate of 20 μl/min. The different compounds dissolved in the running buffer (0.39 to 50 μM) were injected for 3 min, followed by a dissociation phase of 3 min. The sensor chip surface was regenerated after each experiment by injecting 10 μL of EDTA 0.5 M pH 8.0. A simple channel activated by EDC/NHS and deactivated with ethanolamine was used as control. The kinetic parameters were calculated using the BlAeval 4.1 software. Analysis was performed using the simple Langmuir binding model with separate ka/kd (kon/koff). The specific binding profiles were obtained after subtracting the response signal from the control channel and from blank-buffer injection. The fitting to each model was judged by the chi square value and randomness of residue distribution compared to the theoretical model (Langmuir binding 1:1).
The binding affinity of mannoside derivatives for the carbohydrate recognition domain (CRD) of DC-SIGN was assessed by surface plasmon resonance (SPR).
A CM5 sensor chip was functionalized with the DC-SIGN CRD, and increasing concentrations of the various compounds, mannan as a positive control and octaethyleneglycol (OEG) as a negative control, were injected over the chip surface. The association (kon) and dissociation (koff) rate constants and the resulting dissociation equilibrium constant (Kd=koff/kon) for each assessed compound were determined (see Table 1 hereunder).

HIV-1 (R5 strain) = assay: HIV-1 cis-infection and replication in DCs (p24Gag ELISA); assay type: cell-based; conditions: 10 and 100 μM, p24Gag in supernatant
Procedure: Human monocyte-derived dendritic cells (2×10^5; 300 μL) in RPMI 1640 medium containing 10% FBS were pre-treated with either anti-DC-SIGN antibodies (clone AZND1, Beckman-Coulter; 10 μg/mL) or compounds TriManC24 and TriManC24insat (10 and 100 μM) for 30 min at 37° C., before inoculation with HIV-1 (R5 strain; 100 ng of p24Gag). After 3 h, cells were pelleted and extensively washed to remove excess virus and compounds. On day 2, 4 and 7 after infection, cells were pelleted, an aliquot of the supernatant was removed and kept at −20° C., and half of the supernatant was replaced with fresh medium. Viral replication was monitored by measuring p24Gag levels in the culture supernatant by an enzyme-linked immunosorbent assay (ELISA, Innogenetics). […] As shown in the case of Dengue virus, the compounds of the invention may also interfere with HIV cis-infection. […] Discussion

Dengue virus 2 (DV2) = assay: Dengue virus (DV2) cis-infection of human DCs; assay type: cell-based; conditions: for percentage of infected DCs: 48 hours
Procedure: Compounds of the invention (TriManC24, TriManinsatC24) were serially diluted in water. Human DCs (2.5×10^5 in 200 μl) in 48-well plates were pre-treated with different concentrations of compounds or culture medium alone, in RPMI 1640 medium […] for 30 min at 37° C. They were exposed to DV-2 at a multiplicity of infection of 1.0, for 2 h at 37° C. Cells were washed and cultured in complete RPMI medium (condition 1) or in complete medium containing the tested compounds (TriManC24, TriMannsatC24) (condition 2). After 48 h, supernatants were titered and cells were subjected to intracellular detection of viral antigens. DCs were fixed with 4% (v/v) paraformaldehyde and permeabilized with 0.1% (v/v) Triton X-100 for 3 min at room temperature. After washing, they were labeled with mouse anti-DV type 2 monoclonal antibody (3H5.1, Millipore) and stained with APC -conjugated rat anti-mouse IgG1. Fluorescence intensity of the cells was analyzed by flow cytometry (FACSCalibur, Becton Dickinson), using the Cell Quest Pro software.
There are four different dengue serotypes (1-4), and we have used DV type 2 (DV2) to further investigate the ability of the compounds of the invention (TriManC24 and TriManinsatC24) to inhibit the infection of human DCs. These cells were pre-treated with different concentrations of compounds or culture medium alone, for 30 min at 37° C. They were then exposed to DV2 for 2 hours at 37° C. Cells were washed to remove excess virions and compounds, and further cultured either in the absence (condition 1) or in the presence (condition 2) of the tested compounds. After 48 hours, cells were subjected to intracellular detection of viral antigens, and supernatants were titrated (not shown). […] FIG. 3A and FIG. 3B show the percentage of infected DCs when incubated with distinct concentrations of TriManinsatC24 in condition 1 and in condition 2, respectively. The histograms clearly show the protecting effects of TriManinsatC24, in particular in condition 2 wherein TriManinsatC24 at 10, 50 and 100 μM enabled the percentage of infected DCs to be reduced down to 40%, 20% and 2% respectively.

[1] = Critical micelle concentration (CMC), pyrene fluorescent probe; assay type: physicochemical; conditions: in water
Procedure: DiManinsatC24 was prepared according a procedure similar to that used for the preparation of TriDiManC24 except that: • pentacosanoic acid was replaced by 10,12-pentacosadiynoic acid, and • before the coupling with 10,12-pentacosadiynoic acid, the benzyl groups of compound 33 were replaced by acetyl group so as to provide compound 108 (as illustrated in FIG. 3E). ^1H NMR δ(ppm) (MeOD, 400 MHz) 4.87 (s, 3H), 4.73 (s, 3H), 3.64-3.50 (m, 14H), 3.46-3.20 (m, 76H), 2.97-2.93 (m, 6H), 2.33 (t, 6H, J=6.8 Hz), 2.09-1.96 (m, 6H), 1.08-1.05 (m, 32H), 0.66 (t, 3H, J=6.8 Hz). ^13C NMR δ (ppm) (MeOD, 100 MHz) 173.7, 168.8, 104.2, 101.2, 80.6, 80.4, 75.1, 74.7, 72.5, 72.2, 72.1, 71.9, 71.8, 71.7, 71.6, 71.4, 69.4, 69.1, 68.9, 68.7, 68.6, 68.0, 63.2, 63.1, 42.2, 37.0, 34.8, 33.7, 33.1, 30.8, 30.7, 30.6, 30.5, 30.4, 30.2, 29.5, 28.1, 27.0, 26.0, 23.7, 19.7, 14.4. […] The hydrodynamic diameters of micelles of glycolipids were measured in water using a Zetasizer Nano ZS system (Malvern Instruments). The CMCs were measured using pyrene as an extrinsic fluorescent probe and were carried out as described (Perino et al., 2011). […] Fluorescent emission of pyrene was measured at 25° C. using a Fluorolog spectrofluorometer (Jobin Yvon, Horiba). The intensities of fluorescence emission were determined at 374 nm (I374) and at 383 nm (I383), with an excitation at a 339 nm wavelength. […]

[2] = HIV-1 R5, highest concentrations, relative to medium alone

Row | Kd (DC-SIGN CRD) | IC50 (HIV-1 R5; Human immunodeficiency virus 1, MAGI-CCR5, HIV-1 R5, read-out: IC50 of HIV-1 trans-infection) | koff (DC-SIGN CRD; 25° C., Langmuir 1:1) | kon (DC-SIGN CRD; 25° C., Langmuir 1:1) | KD (μM) (DC-SIGN CRD) | KD (μM) (DC-SIGN CRD; listed as TriDimanC24) | Compound | residual level of trans-infection (HIV-1 R5; [2]) | inhibition of HIV-1 trans-infection (in words) (HIV-1 R5; HIV-1 R5 where stated) | inhibition of HIV-1 cis-infection / replication in DCs (in words) (HIV-1 (R5 strain)) | inhibition of HIV-1 cis-infection / replication in DCs (in words) (HIV-1 (R5 strain); listed as TriManC24insat) | inhibition of Dengue virus infection of DCs (in words) (Dengue virus 2 (DV2)) | percentage of infected DCs (Dengue virus 2 (DV2); condition 2, 10 μM) | percentage of infected DCs (Dengue virus 2 (DV2); condition 2, 50 μM) | percentage of infected DCs (Dengue virus 2 (DV2); condition 2, 100 μM) | ability to form micelles (in words) [1] | residual level of trans-infection (HIV-1 R5)
1 | 2.57 µM | 61 µM | 0.00138 s⁻¹ | 538 M⁻¹ s⁻¹ | – | – | CCCCCCCCCCCCC#CC#CCCCCCCCCC(=O)NCCOCCOCCOCC(=O)NCCOCCOCCOCCO[C@H]1O[C@H](CO)[C@@H](O)[C@H](O)[C@@H]1O [ManinsatC24] | 15% | – | – | – | – | – | – | – | – | –
2 | 3.25 µM | – | – | – | low micromolar range | Sub-micromolar | CCCCCCCCCCCCCCCCCCCCCCCCC(=O)NC(COCCC(=O)NCCOCCOCCOCCOC1OC(CO)C(O)C(O)C1OC1OC(CO)C(O)C(O)C1O)(COCCC(=O)NCCOCCOCCOCCOC1OC(CO)C(O)C(O)C1OC1OC(CO)C(O)C(O)C1O)COCCC(=O)NCCOCCOCCOCCOC1OC(CO)C(O)C(O)C1OC1OC(CO)C(O)C(O)C1O (stereo not shown) [TriDiManC24] | – | – | – | – | – | – | – | – | unable to form micelles; also recorded: failed to form micelles | 40%

Row | Compound | Kd (DC-SIGN CRD) | IC50 (HIV-1 R5; Human immunodeficiency virus 1, MAGI-CCR5, HIV-1 R5, read-out: IC50 of HIV-1 trans-infection) | koff (DC-SIGN CRD; 25° C., Langmuir 1:1) | kon (DC-SIGN CRD; 25° C., Langmuir 1:1) | KD (μM) (DC-SIGN CRD) | KD (μM) (DC-SIGN CRD; listed as TriDimanC24) | residual level of trans-infection (HIV-1 R5; [2]) | inhibition of HIV-1 trans-infection (in words) (HIV-1 R5; HIV-1 R5 where stated) | inhibition of HIV-1 cis-infection / replication in DCs (in words) (HIV-1 (R5 strain)) | inhibition of HIV-1 cis-infection / replication in DCs (in words) (HIV-1 (R5 strain); listed as TriManC24insat) | inhibition of Dengue virus infection of DCs (in words) (Dengue virus 2 (DV2)) | percentage of infected DCs (Dengue virus 2 (DV2); condition 2, 10 μM) | percentage of infected DCs (Dengue virus 2 (DV2); condition 2, 50 μM) | percentage of infected DCs (Dengue virus 2 (DV2); condition 2, 100 μM) | ability to form micelles (in words) [1] | residual level of trans-infection (HIV-1 R5)
3 | CCCCCCCCCCCCC#CC#CCCCCCCCCC(=O)NC(COCCC(=O)NCCOCCOCCOCCOC1OC(CO)C(O)C(O)C1O)(COCCC(=O)NCCOCCOCCOCCOC1OC(CO)C(O)C(O)C1O)COCCC(=O)NCCOCCOCCOCCOC1OC(CO)C(O)C(O)C1O (stereo not shown) [TriManinsatC24] | 0.47 µM | – | – | – | – | – | 2% | almost fully blocked HIV trans-infection at the highest concentrations | inhibit | decreases the amount of HIV R5 replication | able to inhibit the direct infection of DCs by Dengue virus | 40% | 20% | 2% | – | –
